In ChEMBL document CHEMBL3792297, “Studies on phenothiazines: New microtubule-interacting compounds with phenothiazine A-ring as potent antineoplastic agents” (Bioorg Med Chem, 2016):

Legend:
NCI-H226 = test: Growth inhibition of human NCI-H226 cells at 10 uM after 48 hrs by SRB assay relative to control; type: functional; settings: NCI-H226, 48 h, read-out: GI
[1] = Growth inhibition of human HCC2998 cells at 10 uM after 48 hrs by SRB assay relative to control; type: functional; settings: HCC 2998, 48 h, read-out: GI
[2] = Growth inhibition of human UACC257 cells at 10 uM after 48 hrs by SRB assay relative to control; type: functional; settings: UACC-257, 48 h, read-out: GI
MDA-MB-468 = test: Growth inhibition of human MDA-MB-468 cells at 10 uM after 48 hrs by SRB assay relative to control; type: functional; settings: MDA-MB-468, 48 h, read-out: GI
M14 = test: Growth inhibition of human M14 cells at 10 uM after 48 hrs by SRB assay relative to control; type: functional; settings: M14, 48 h, read-out: GI
A549 = test: Growth inhibition of human A549 cells at 10 uM after 48 hrs by SRB assay relative to control; type: functional; settings: A549, 48 h, read-out: GI
[3] = Growth inhibition of human MOLT4 cells at 10 uM after 48 hrs by SRB assay relative to control; type: functional; settings: MOLT-4, 48 h, read-out: GI
EKVX = test: Growth inhibition of human EKVX cells at 10 uM after 48 hrs by SRB assay relative to control; type: functional; settings: read-out: GI
[4] = Growth inhibition of human UACC62 cells at 10 uM after 48 hrs by SRB assay relative to control; type: functional; settings: UACC-62, 48 h, read-out: GI
Ovis aries = species: Ovis aries; test: Inhibition of sheep brain tubulin polymerization at 100 uM by DAPI staining-based fluorimetric method
[5] = Growth inhibition of human HL-60(TB) cells at 10 uM after 48 hrs by SRB assay relative to control; type: functional; settings: HL-60, 48 h, read-out: GI
[6] = Growth inhibition of human SF268 cells at 10 uM after 48 hrs by SRB assay relative to control; type: functional; settings: SF-268, 48 h, read-out: GI
[7] = Growth inhibition of human Hs 578T cells at 10 uM after 48 hrs by SRB assay relative to control; type: functional; settings: read-out: GI
[8] = Growth inhibition of human SKOV3 cells at 10 uM after 48 hrs by SRB assay relative to control; type: functional; settings: SK-OV-3, 48 h, read-out: GI
[9] = Growth inhibition of human LOXIMVI cells at 10 uM after 48 hrs by SRB assay relative to control; type: functional; settings: LOX IMVI, read-out: GI
[10] = Growth inhibition of human HCT15 cells at 10 uM after 48 hrs by SRB assay relative to control; type: functional; settings: HCT-15, 48 h, read-out: GI
KM12 = test: Growth inhibition of human KM12 cells at 10 uM after 48 hrs by SRB assay relative to control; type: functional; settings: KM12, 48 h, read-out: GI
[11] = Growth inhibition of human PC3 cells at 10 uM after 48 hrs by SRB assay relative to control; type: functional; settings: PC-3, 48 h, read-out: GI
U-251 = test: Growth inhibition of human U251 cells at 10 uM after 48 hrs by SRB assay relative to control; type: functional; settings: U-251, 48 h, read-out: GI
[12] = Growth inhibition of human SF295 cells at 10 uM after 48 hrs by SRB assay relative to control; type: functional; settings: SF-295, 48 h, read-out: GI
SK-MEL-2 = test: Growth inhibition of human SK-MEL-2 cells at 10 uM after 48 hrs by SRB assay relative to control; type: functional; settings: SK-MEL-2, 48 h, read-out: GI
[13] = Growth inhibition of human OVCAR8 cells at 10 uM after 48 hrs by SRB assay relative to control; type: functional; settings: OVCAR-8, 48 h, read-out: GI
MCF7 = test: Growth inhibition of human MCF7 cells at 10 uM after 48 hrs by SRB assay relative to control; type: functional; settings: MCF7, 48 h, read-out: GI
[14] = Growth inhibition of human NCI-ADR-RES cells at 10 uM after 48 hrs by SRB assay relative to control; type: functional; settings: read-out: GI
[15] = Growth inhibition of human HOP62 cells at 10 uM after 48 hrs by SRB assay relative to control; type: functional; settings: HOP-62, 48 h, read-out: GI
NCI-H322M = test: Growth inhibition of human NCI-H322M cells at 10 uM after 48 hrs by SRB assay relative to control; type: functional; settings: read-out: GI
[16] = Growth inhibition of human RPMI8226 cells at 10 uM after 48 hrs by SRB assay relative to control; type: functional; settings: RPMI-8226, 48 h, read-out: GI
[17] = Growth inhibition of human SNB19 cells at 10 uM after 48 hrs by SRB assay relative to control; type: functional; settings: SNB-19, 48 h, read-out: GI
SK-MEL-28 = test: Growth inhibition of human SK-MEL-28 cells at 10 uM after 48 hrs by SRB assay relative to control; type: functional; settings: SK-MEL-28, 48 h, read-out: GI
[18] = Growth inhibition of human UO31 cells at 10 uM after 48 hrs by SRB assay relative to control; type: functional; settings: UO-31, 48 h, read-out: GI
[19] = Growth inhibition of human COLO205 cells at 10 uM after 48 hrs by SRB assay relative to control; type: functional; settings: COLO 205, 48 h, read-out: GI
SN12C = test: Growth inhibition of human SN12C cells at 10 uM after 48 hrs by SRB assay relative to control; type: functional; settings: read-out: GI
CCRF-CEM = test: Growth inhibition of human CCRF-CEM cells at 10 uM after 48 hrs by SRB assay relative to control; type: functional; settings: read-out: GI
[20] = Growth inhibition of human HCT116 cells at 10 uM after 48 hrs by SRB assay relative to control; type: functional; settings: HCT-116, 48 h, read-out: GI
[21] = Growth inhibition of human IGROV1 cells at 10 uM after 48 hrs by SRB assay relative to control; type: functional; settings: IGROV-1, 48 h, read-out: GI
NCI-H23 = test: Growth inhibition of human NCI-H23 cells at 10 uM after 48 hrs by SRB assay relative to control; type: functional; settings: NCI-H23, 48 h, read-out: GI
[22] = Growth inhibition of human TK10 cells at 10 uM after 48 hrs by SRB assay relative to control; type: functional; settings: TK-10, 48 h, read-out: GI
[23] = Growth inhibition of human SW620 cells at 10 uM after 48 hrs by SRB assay relative to control; type: functional; settings: SW-620, 48 h, read-out: GI
MDA-MB-231 = test: Growth inhibition of human MDA-MB-231 cells at 10 uM after 48 hrs by SRB assay relative to control; type: functional; settings: MDA-MB-231, 48 h, read-out: GI

COc1ccc(C(=O)N2c3ccccc3Sc3ccccc32)c(C(F)(F)F)c1
inhibition of growth at 10 µM (NCI-H226): 87% | inhibition of growth at 10 µM [1]: 74% | inhibition of growth at 10 µM [2]: 38% | inhibition of growth at 10 µM (MDA-MB-468): 70% | inhibition of growth at 10 µM (M14): 98% | inhibition of growth at 10 µM (A549): 75% | inhibition of growth at 10 µM [3]: 85% | inhibition of growth at 10 µM (EKVX): 54% | inhibition of growth at 10 µM [4]: 68% | inhibition (Ovis aries): 80% | inhibition of growth at 10 µM [5]: 98% | inhibition of growth at 10 µM [6]: 65% | inhibition of growth at 10 µM [7]: 76% | inhibition of growth at 10 µM [8]: 66% | inhibition of growth at 10 µM [9]: 83% | inhibition of growth at 10 µM [10]: 82% | inhibition of growth at 10 µM (KM12): 82% | inhibition of growth at 10 µM [11]: 85% | inhibition of growth at 10 µM (U-251): 81% | inhibition of growth at 10 µM [12]: 95% | inhibition of growth at 10 µM (SK-MEL-2): 53% | inhibition of growth at 10 µM [13]: 85% | inhibition of growth at 10 µM (MCF7): 83% | inhibition of growth at 10 µM [14]: 97% | inhibition of growth at 10 µM [15]: 57% | inhibition of growth at 10 µM (NCI-H322M): 47% | inhibition of growth at 10 µM [16]: 86% | inhibition of growth at 10 µM [17]: 69% | inhibition of growth at 10 µM (SK-MEL-28): 48% | inhibition of growth at 10 µM [18]: 60% | inhibition of growth at 10 µM [19]: 100% | inhibition of growth at 10 µM (SN12C): 60% | inhibition of growth at 10 µM (CCRF-CEM): 78% | inhibition of growth at 10 µM [20]: 93% | inhibition of growth at 10 µM [21]: 62% | inhibition of growth at 10 µM (NCI-H23): 76% | inhibition of growth at 10 µM [22]: 43% | inhibition of growth at 10 µM [23]: 75% | inhibition of growth at 10 µM (MDA-MB-231): 76%

O=C(c1ccc(F)cc1F)N1c2ccccc2Sc2ccccc21
inhibition of growth at 10 µM (NCI-H226): 30% | inhibition of growth at 10 µM [1]: 47% | inhibition of growth at 10 µM [2]: 44% | inhibition of growth at 10 µM (MDA-MB-468): 64% | inhibition of growth at 10 µM (M14): 35% | inhibition of growth at 10 µM (A549): 48% | inhibition of growth at 10 µM [3]: 69% | inhibition of growth at 10 µM (EKVX): 20% | inhibition of growth at 10 µM [4]: 68% | inhibition (Ovis aries): 25% | inhibition of growth at 10 µM [5]: 71% | inhibition of growth at 10 µM [6]: 46% | inhibition of growth at 10 µM [7]: 16% | inhibition of growth at 10 µM [8]: 22% | inhibition of growth at 10 µM [9]: 74% | inhibition of growth at 10 µM [10]: 76% | inhibition of growth at 10 µM (KM12): 62% | inhibition of growth at 10 µM [11]: 58% | inhibition of growth at 10 µM (U-251): 66% | inhibition of growth at 10 µM [12]: 36% | inhibition of growth at 10 µM (SK-MEL-2): 19% | inhibition of growth at 10 µM [13]: 35% | inhibition of growth at 10 µM (MCF7): 48% | inhibition of growth at 10 µM [14]: 55% | inhibition of growth at 10 µM [15]: 33% | inhibition of growth at 10 µM (NCI-H322M): 8% | inhibition of growth at 10 µM [16]: 47% | inhibition of growth at 10 µM [17]: 37% | inhibition of growth at 10 µM (SK-MEL-28): 41% | inhibition of growth at 10 µM [18]: 31% | inhibition of growth at 10 µM [19]: 56% | inhibition of growth at 10 µM (SN12C): 9% | inhibition of growth at 10 µM (CCRF-CEM): 38% | inhibition of growth at 10 µM [20]: 73% | inhibition of growth at 10 µM [21]: 33% | inhibition of growth at 10 µM (NCI-H23): 23% | inhibition of growth at 10 µM [22]: 23% | inhibition of growth at 10 µM [23]: 66% | inhibition of growth at 10 µM (MDA-MB-231): 38%
